SMILES strings stand for the structures.

These results are taken from patent US7371563B2, “Peelable and resealable devices for biochemical assays” (Surface Logix, Inc., priority 2000, dated 2008).

In the assay the target is T1, β1,4-galactosyltransferase (Bos taurus, UniProt P08037).
T1 sequence (P08037 1-402): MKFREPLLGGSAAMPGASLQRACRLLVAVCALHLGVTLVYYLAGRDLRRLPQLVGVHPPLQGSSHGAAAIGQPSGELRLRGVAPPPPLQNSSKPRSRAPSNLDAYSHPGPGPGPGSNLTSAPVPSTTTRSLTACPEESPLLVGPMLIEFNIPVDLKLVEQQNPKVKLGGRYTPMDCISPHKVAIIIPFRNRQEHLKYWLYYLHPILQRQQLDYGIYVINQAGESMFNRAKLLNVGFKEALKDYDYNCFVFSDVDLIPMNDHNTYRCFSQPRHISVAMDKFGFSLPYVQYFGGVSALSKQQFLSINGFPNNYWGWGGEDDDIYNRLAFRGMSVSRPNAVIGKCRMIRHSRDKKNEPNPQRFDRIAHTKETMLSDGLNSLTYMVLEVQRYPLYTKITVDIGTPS
Kind of assay: Glycosyltransferase assay on immobilized carbohydrates. The settings on record: immobilized carbohydrate; UDP [^14C] galactose, 3.5 μM; phosphorimaging. The class given is biochemical, bovine. The method, then:
FIG. 41 represents the results of a glycosyltransferase assay. The surface comprises 3 different carbohydrate substrates defined by columns and a control column (no substrate). Each row was reacted with a different concentration of β1,4-galactosyltransferase and a constant concentration of sugar donor (UDP [^14C] galactose, 3.5 μM). The reaction was detected by phosphorimaging.
Referring to FIG. 41, in the glycosyltransferase assay, various carbohydrates were immobilized using a thiol chemical tag to bond to a monolayer thiolate bearing a maleimide group. A glycosyltransferase enzyme was added to the immobilized carbohydrates. The ability of the enzyme to add radioactively labeled sugars to the immobilized carbohydrates was measured. In the glycosyltransferase assay the enzyme that was employed is bovine recombinant β 1,4-galactosyltransferase. Preferably, the enzyme is at a concentration of about 10 pM to about 100 uM. More preferably, the enzyme is at a concentration of about 100 pM to about 1 uM. […]
Detection of glycosylation of the immobilized carbohydrate substrates on the base plate was performed radiometrically. The incorporation of ^14C was quantified by exposing a storage phosphor screen to the plate and then imaging it on a Variable Mode Imager (Typhoon 8600; Molecular Dynamics, Sunnyvale, Calif.). […]

In the case of `CC(=O)N[C@H]1C(O)O[C@H](CO)[C@@H](O)[C@@H]1O` (stereo partly shown) [GlcNAc], the “substrate for β1,4-galactosyltransferase” value is “only the immobilized GlcNAc was a substrate”.
